Measurements from patent US20230293629A1, “METHODS FOR ATTENUATING RELEASE OF INFLAMMATORY MEDIATORS AND PEPTIDES USEFUL THEREIN” (BIOMARCK PHARMACEUTICALS LTD., priority 2006, published 2023).
Where a SMILES comes first, the peptide text is derived from it. Where no end group is shown, it is not given here. The star is where a group is joined. Myristoyl = CCCCCCCCCCCCCC(=O)*

Key:
HL-60 clone 15 cells = experiment: PMA-stimulated EPO release from HL-60 clone 15 cells; type: cell-based, human; conditions: 50 μM test peptide, two hour incubation with 100 nM PMA; HL-60 clone 15 cells
Protocol: (§1) Three types of human leukocyte cell lines, specifically the promyelocytic cell line HL-60 clone 15, the monocytic cell line U937, and the lymphocyte natural killer cell line NK-92 were purchased from American Type Culture Collection (ATCC; Rockville, MD). HL-60 clone 15 cells (ATCC CRL-1964) were maintained in medium consisting of RPMI 1640 with L-glutamine supplemented with 10% heat-inactivated fetal bovine serum (Gibco; Invitrogen Co., Carlsbad, CA), 50 IU/ml penicillin, 50 μg/mL streptomycin, and 25 mM HEPES buffer, pH 7.8, at 37° C. in an atmosphere containing 5% CO2. Final differentiation to an eosinophil-like phenotype was initiated by culturing cells at 5×10^5 cells/ml in the above medium containing 0.5 mM butyric acid (Sigma-Aldrich Co.) for 5 days as previously described (Tiffany H L, Li F, Rosenberg H F. Hyperglycosylation of eosinophil ribonucleases in a promyelocytic leukemia cell line and in differentiated peripheral blood progenitor cells. J Leukoc Biol 1995; 58:49-54; Tiffany H L, Alkhatib G, Combadiere C, Berger E A, Murphy P M. CC chemokine receptors 1 and 3 are differentially regulated by IL-5 during maturation of eosinophilic HL-60 cells. J Immunol 1998; 160:1385-1392). U937 cells (ATCC CRL-1593.2) were grown at 37° C. in an atmosphere of 5% CO2 in complete medium consisting of RPMI 1640 with L-glutamine supplemented with 10% FBS, 50 IU/ml penicillin, and 50 μg/mL streptomycin. NK-92 cells (ATCC CRL-2407) were maintained in alpha-MEM medium (Sigma-Aldrich Co.) supplemented with 20% FBS, 100 U/ml of interleukin-2 (IL-2) (Chemicon International, Inc., Temecula, CA), 5×10^−5 M of 2-mercaptoethanol, 50 IU/mL penicillin, and 50 μg/ml streptomycin at 37° C. in an atmosphere containing 5% CO2. Cell morphology was judged by assessment of Wright-Giemsa-stained cells. Viability of cells harvested for experiments was assessed by trypan blue exclusion and populations of cells with viability >95% were used.
(§2) HL-60 clone 15, U937, and NK-92 cells were washed and resuspended at 2.5×10^6 cells/ml in phenol red-free RPMI-1640 (Cellgro; Mediatech, Inc.) for all degranulation assays. Aliquots of cells in 15 ml tubes were preincubated with indicated concentrations of MANS, RNS, or a test peptide for 10 min at 37° C. The cells then were stimulated with PMA for up to 2 hr. A control reference (PMA control reference) was established for each cell type using HL-60 clone 15, U937, and NK-92 cells, respectively, which were washed and resuspended at 2.5×10^6 cells/ml in phenol red-free RPMI-1640 and stimulated with PMA but in the absence of MANS, RNS, or a test peptide for the same time periods. The reaction was terminated by placing tubes on ice and centrifuging cells at 400 g for 5 min at 4° C.
(§3) For measurements of released MPO from neutrophils and released lysozyme from U937 cells, we were able to quantify secretion by using as standards human MPO and egg white […], respectively. For released EPO from HL-60 clone 15 cells and for released granzyme from NK-92 cells, no standards were available to use for quantification. […] To measure intracellular EPO in HL-60 clone 15 cells and intracellular granzyme in NK-92 cells, appropriate aliquots of 0.1% triton X-100-lysed cells were taken for quantification of intracellular granule proteins as described below. All treatments were expressed as percentage of control to minimize variability between cultures.
EPO activity released by HL-60 clone 15 cells was assayed using TMB according to a previously established technique (Lacy P, Mahmudi-Azer S, Bablitz B, Hagen S C, Velazquez J R, Man S F, Moqbel R. Rapid mobilization of intracellularly stored RANTES in response to interferon-gamma in human eosinophils. Blood 1999; 94:23-32). Thus, 100 μL of TMB substrate solution was added to 50 μL=microliters) of sample in a 96-well microplate and incubated at room temperature for 15 min (min=minutes). […]

U937 cells = experiment: PMA-stimulated lysozyme secretion by U937 cells; type: cell-based, human; conditions: 50 μM test peptide, two hour incubation with 100 nM PMA; U937 cells
Protocol: as §1, §2, §3
Lysozyme secreted by U937 cells was measured using a spectrophotometric assay as described previously (Balboa M A, Saez Y, Balsinde J. Calcium-independent phospholipase A2 is required for lysozyme secretion in U937 promonocytes. J Immunol 2003; 170:5276-5280) with slight modification. Thus, 100 μL of sample was mixed with 100 μL of a Micrococcus lysodeikticus (Sigma-Aldrich Co.) suspension (0.3 mg/ml in 0.1 M sodium phosphate buffer, pH 7.0) in a 96-well microplate. The decrease in absorbance at 450 nm was measured at room temperature. […]

[1] = Qualitative solubility of peptides in 0.5 N saline, pH 6.5

Compound | % Inhibition EPO (HL-60 clone 15 cells) [%] | % Inhibition Lysozyme (U937 cells) [%] | solubility [1] [mg/mL]
CCCCCCCCCCCCCC(=O)N[C@H](C(=O)N[C@@H](C)C(=O)N[C@@H](C)C(=O)N[C@@H](CCCCN)C(=O)NCC(=O)N[C@@H](CCC(=O)O)C(=O)N[C@@H](C)C(=O)N[C@@H](C)C(=O)O)[C@@H](C)O [MA-TAAKGEAA, TAAKGEAA] (Myristoyl-TAAKGEAA-OH; C-terminus assumed) | 0 | 80.2 | < 1
Ac-AAKGEA [Ac-AAKGEA, AAKGEA] | 10.6 | 9.2 | > 150
Ac-AQFSKTAAKGE-NH2 [Ac-AQFSKTAAKGE-NH2, AQFSKTAAKGE] | 42.8 | 51.8 | > 90
Ac-FSKTAAKGE-NH2 [Ac-FSKTAAKGE-NH2, FSKTAAKGE] | 25.3 | 56.7 | > 100
Ac-GAQFSATAAA [Ac-GAQFSATAAA, GAQFSATAAA] | 35.7 | 3.2 | < 10
Ac-GAQFSKTA [Ac-GAQFSKTA, GAQFSKTA] | 0 | 0 | > 200
Ac-GAQFSKTAA [Ac-GAQFSKTAA, GAQFSKTAA] | 33.3 | 28.9 | > 20
Ac-GAQFSKTAAA [Ac-GAQFSKTAAA, GAQFSKTAAA] | 55.2 | 28.3 | > 100
Ac-GAQFSKTAAAGE [Ac-GAQFSKTAAAGE, GAQFSKTAAAGE] | 55.8 | 37.2 | > 50
Ac-GAQFSKTAAKGA [Ac-GAQFSKTAAKGA, GAQFSKTAAKGA] | 40.9 | 24.1 | > 50
Ac-GAQFSKTAAKGE [Ac-GAQFSKTAAKGE, GAQFSKTAAKGE] | 46.7 | 43.3 | > 100
Ac-KTAAKGE-NH2 [Ac-KTAAKGE-NH2, KTAAKGE] | 0 | 24.3 | > 200
Ac-QFSKTAAKGE-NH2 [Ac-QFSKTAAKGE-NH2, QFSKTAAKGE] | 15.7 | 60.7 | > 150
Ac-SKTAAKGE-NH2 [Ac-SKTAAKGE-NH2, SKTAAKGE] | 42.2 | 0 | > 200
Ac-TAAKGEAA [Ac-TAAKGEAA, TAAKGEAA] | 40.4 | 0.5 | > 230
